Source: patent US20190381108A1, “COMPOSITION FOR IMPROVING BONE HEALTH, INCLUDING FUNCTIONAL FERMENTED MATERIAL USING OYSTERS” (Jeju National University Industry-Academic Cooperation …, priority 2018, published 2019)

System: RAW 264.7 cells
Experiment: Production of ROS in cells (DCF-DA, flow cytometry)
Assay type: cell-based, murine
Conditions: RANKL 100 ng/mL; DCF-DA staining
Description: After RAW 264.7 cells were aliquoted at 5×10^4 cells/well into 6-well plates and stabilized for 24 hours, RAW 264.7 cells were induced into differentiation by RANKL (100 ng/mL), treated with FO at each concentration, cultured for 5 days, and then stained at 37° C. for 30 minutes by treatment with 10 μM DCF-DA, and then measured using flow cytometry.
It is known that oxidative stress in cells occurs during the differentiation of osteoclasts induced by RANKL. Therefore, the effects of FO on the production of ROS induced by RANKL was confirmed through DCF-DA staining.

CC(=O)N[C@@H](CS)C(=O)O [NAC]
ROS increased in the osteoclasts treated with RANKL: also similarly observed
